Data set [1] has as its system Pseudomonas stutzeri MB 1231. The experiment in a line: MIC, liquid turbidimetric microtiter method. The data set is classed as cell-based. The conditions noted are these: Stutzerimonas stutzeri, MB1231, broth media. From the text: (§1) The compounds of formula (II) show antibacterial activity against a range of aerobic Gram positive and negative bacteria, as shown in the following Table. The assay employs a liquid turbidimetric microtiter method for determination of the minimum inhibitory concentration (MIC) in broth media. […] The MIC is generally not an absolute value but rather a concentration range that falls within a two-fold dilution limit. Generally twelve two-fold dilutions of the test compound are employed with the initial concentration set at 128 mcg/ml.

For another data set, the system named is Escherichia coli MB 2884. In words: MIC, liquid turbidimetric microtiter method. The data set is classed as cell-based. The settings on record: MB2884, broth media.
Excerpt: as §1

Data set [2] relates to Steptococcus pneumoniae CL 2883. In words: MIC, liquid turbidimetric microtiter method. The data set is classed as cell-based. The settings on record: broth media.
Excerpt: as §1

In another data set the test system is Escherichia coli MB 4926. In words: MIC, liquid turbidimetric microtiter method. The format is cell-based. The settings on record: MB4926, broth media.
Excerpt: as §1

Data set [3] concerns Staphylococcus haemolyticus MB 5412. In words: MIC, liquid turbidimetric microtiter method. The conditions noted are these: MB5412, broth media. The data set is classed as cell-based.
Excerpt: as §1

Data set [4] deals with Streptococcus pyogenes MB 2874. The experiment in a line: MIC, liquid turbidimetric microtiter method. The data set is classed as cell-based. The settings on record: MB2874, broth media.
Excerpt: as §1

The test system of data set [5] is Yersinia enterocoltica CL 1598. The experiment in a line: MIC, liquid turbidimetric microtiter method. The settings on record: CL1598, broth media. The format is cell-based.
Excerpt: as §1

The subject of data set [6] is Staphylococcus epidermidis MB 5414. The experiment in a line: MIC, liquid turbidimetric microtiter method. The data set is classed as cell-based. The conditions noted are these: MB5414, broth media.
Excerpt: as §1

Data set [7] concerns Streptococcus agalactiae CL 1343. The experiment in a line: MIC, liquid turbidimetric microtiter method. The settings on record: CL1343, broth media. The data set is classed as cell-based.
Excerpt: as §1

For data set [8], the system named is Streptococcus viridans CL 2943. The experiment in a line: MIC, liquid turbidimetric microtiter method. The data set is classed as cell-based. The conditions noted are these: CL2943, broth media.
Excerpt: as §1

The subject of data set [9] is Staphylococcus aureus MB 2865. The experiment in a line: MIC, liquid turbidimetric microtiter method. The settings on record: MB2865, broth media. The data set is classed as cell-based.
Excerpt: as §1

For data set [10], the system named is Enterococcus faecalis MB 5407. In words: MIC, liquid turbidimetric microtiter method. The conditions noted are these: MB5407, broth media. The data set is classed as cell-based.
Excerpt: as §1

Data set [11] concerns Enterococcus faecium MB 5416. In words: MIC, liquid turbidimetric microtiter method. The data set is classed as cell-based. The settings on record: MB5416, broth media.
Excerpt: as §1

For data set [12], the system named is Klebsiella pneumoniae MB 4005. The experiment in a line: MIC, liquid turbidimetric microtiter method. The format is cell-based. The conditions noted are these: MB4005, broth media.
Excerpt: as §1

Data set [13] concerns Streptococcus pyogenes MB 5406. The experiment in a line: MIC, liquid turbidimetric microtiter method. The data set is classed as cell-based. The conditions noted are these: MB5406, broth media.
Excerpt: as §1

The nature of data set [14]: isomerization / stability of 9,12-epoxy isomers. The format is physicochemical. From the text:
As previously noted, Beckmann rearrangement of oxime (III) under anhydrous conditions leads to a product mixture comprised of the 6,9- and 9,12-bridged iminoethers (VI) and (VII). The 9,12-bridged product, which is formed by internal trapping of the intermediate nitrilium species by the hydroxyl group at C-12, is initially isolated as a mixture of major and minor forms that are isomeric about the imino double bond. The initial mixture of isomers equilibrates at room temperature, both in solution or on storing as a crude foam, to approximately a 1:1 mixture of isomers. The first-formed, major isomer can be isolated from the mixture by crystallization from nitromethane solution.
A solution of the mixture of 9,12-epoxy isomers in nitromethane (2 mL) deposited a large, crystalline mass on standing at room temperature for several days. The mixture was diluted with nitromethane (10 mL) and filtered to remove the solid portion, which was washed with nitromethane (2 mL) and dried under high vacuum. The white solid thus obtained (0.9 g) was shown by ^1 H NMR spectroscopy to be the major 9,12-epoxy isomer which is initially formed in the Beckmann rearrangement reaction.

Structures are written as SMILES. ≈ marks a conversion by molar mass, not a printed value.

A word on the MIC: it is the smallest concentration in the dilution series that meets the test's criterion for growth inhibition. Read a high MIC as a need for much substance. On to `CC[C@H]1OC(=O)[C@H](C)[C@@H](O[C@H]2C[C@@](C)(OC)[C@@H](O)[C@H](C)O2)[C@H](C)[C@@H](O[C@@H]2O[C@H](C)C[C@H](N(C)C)[C@H]2O)[C@@]2(C)C[C@@H](C)N=C(O2)[C@H](C)[C@@H](O)[C@]1(C)O` [(VI), 9-Deoxo-6-deoxy-6,9-epoxy-8a,9-didehydro-8a-aza-8a-homoerythromycin A], for which the MIC in data set [1] came to 0.5 µg/mL (≈ 0.684 µM); with Escherichia coli MB 2884, 128 µg/mL (≈ 175 µM); in data set [2] it was 0.5 µg/mL (≈ 0.684 µM); against Escherichia coli MB 4926 it was 8 µg/mL (≈ 10.9 µM); in data set [3] it was 8 µg/mL (≈ 10.9 µM); in data set [4], 1 µg/mL (≈ 1.37 µM). The MIC in [5] amounted to 128 µg/mL (≈ 175 µM); in data set [6], 32 µg/mL (≈ 43.8 µM); in data set [7] it was 1 µg/mL (≈ 1.37 µM); in data set [8], 16 µg/mL (≈ 21.9 µM); in [9] it was 16 µg/mL (≈ 21.9 µM); in data set [10] it was 32 µg/mL (≈ 43.8 µM). For the same compound, the MIC in [11] is 8 µg/mL (≈ 10.9 µM); in [12] it was over 128 µg/mL; in data set [13], 128 µg/mL (≈ 175 µM).

For `CC[C@H]1OC(=O)[C@H](C)[C@@H](O[C@H]2C[C@@](C)(OC)[C@@H](O)[C@H](C)O2)[C@H](C)[C@@H](O[C@@H]2O[C@H](C)C[C@H](N(C)C)[C@H]2O)[C@](C)(O)C[C@@H](C)N=C2O[C@@]1(C)[C@H](O)[C@H]2C` [(VII), 9-Deoxo-12-deoxy-9,12-epoxy-8a,9-didehydro-8a-aza-8a-homoerythromycin A], the MIC in data set [1] stood at 2 µg/mL (≈ 2.74 µM); against Escherichia coli MB 2884, 128 µg/mL (≈ 175 µM); in [2] it was 4 µg/mL (≈ 5.47 µM); with Escherichia coli MB 4926, 32 µg/mL (≈ 43.8 µM); in [3], 32 µg/mL (≈ 43.8 µM); in data set [4], 2 µg/mL (≈ 2.74 µM). Further, the MIC in data set [6] is 16 µg/mL (≈ 21.9 µM); in data set [7], 4 µg/mL (≈ 5.47 µM); in data set [8] it was 4 µg/mL (≈ 5.47 µM); in data set [9] it was 16 µg/mL (≈ 21.9 µM); in [10] it was over 128 µg/mL; in data set [11], 16 µg/mL (≈ 21.9 µM). In addition, the MIC in data set [12] and in [13] was over 128 µg/mL throughout.

For `CC[C@H]1OC(=O)[C@H](C)[C@@H](O[C@H]2C[C@@](C)(OC)[C@@H](O)[C@H](C)O2)[C@H](C)[C@@H](O[C@@H]2O[C@H](C)C[C@H](N(C)C)[C@H]2O)[C@](C)(O)C[C@@H](C)N=C2O[C@@]1(C)[C@H](O)[C@H]2C` (single isomer, unassigned; isomer 9) [crystalline isomer, 9-deoxo-12-deoxy-9,12-epoxy-8a,9-didehydro-8a-aza-8a-homoerythromycin A], in data set [14], the solid state stability result is “stable in the solid state”.
